The source made the active and inactive calls.
Assays:
[1] = viability of PTEN-deleted HCT116 cells – cell-based, HCT116 PTEN knockout, dose response (AID 1047); format: functional;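 also: HCT116 colon tumor cells with PTEN knocked out; cells exposed to compound for 60 hours before readout; potency for loss of cell viability measured by luminescence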
[2] = viability of HCT116 lacking mutant beta-catenin – cell-based, human colon tumor, dose response (AID 1045); format: functional;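 also: HCT116 colon tumor cells with beta catenin knocked out; cells exposed to compound for 60 hours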
Coagulation factor XII = target: T1, Coagulation factor XII (Homo sapiens, UniProt P00748); format: functional;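 also: activated factor XIIa alpha cleaving a fluorogenic AMC peptide substrate; inhibitor potency from loss of enzyme activity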
T1 sequence (P00748 whole entry): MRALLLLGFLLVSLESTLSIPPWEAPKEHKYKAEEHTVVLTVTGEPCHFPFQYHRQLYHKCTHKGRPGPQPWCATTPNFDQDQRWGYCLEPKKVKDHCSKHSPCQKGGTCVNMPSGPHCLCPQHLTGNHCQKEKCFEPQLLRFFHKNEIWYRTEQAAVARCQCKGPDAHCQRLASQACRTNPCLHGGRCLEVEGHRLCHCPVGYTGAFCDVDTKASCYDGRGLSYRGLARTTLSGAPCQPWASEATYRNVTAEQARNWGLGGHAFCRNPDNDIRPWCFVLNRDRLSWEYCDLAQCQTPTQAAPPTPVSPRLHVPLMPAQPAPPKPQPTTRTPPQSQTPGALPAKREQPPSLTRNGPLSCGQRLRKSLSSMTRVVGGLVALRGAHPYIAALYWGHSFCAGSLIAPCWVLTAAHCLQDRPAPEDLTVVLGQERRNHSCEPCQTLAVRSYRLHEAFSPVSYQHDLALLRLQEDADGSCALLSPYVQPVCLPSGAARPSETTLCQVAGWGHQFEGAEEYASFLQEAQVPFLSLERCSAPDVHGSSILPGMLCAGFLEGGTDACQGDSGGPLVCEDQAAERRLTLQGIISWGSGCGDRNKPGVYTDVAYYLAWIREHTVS

Cytochrome P450 2C9 = Cytochrome P450 2C9 (Homo sapiens, UniProt P11712)
Chain of Cytochrome P450 2C9 (P11712 whole entry): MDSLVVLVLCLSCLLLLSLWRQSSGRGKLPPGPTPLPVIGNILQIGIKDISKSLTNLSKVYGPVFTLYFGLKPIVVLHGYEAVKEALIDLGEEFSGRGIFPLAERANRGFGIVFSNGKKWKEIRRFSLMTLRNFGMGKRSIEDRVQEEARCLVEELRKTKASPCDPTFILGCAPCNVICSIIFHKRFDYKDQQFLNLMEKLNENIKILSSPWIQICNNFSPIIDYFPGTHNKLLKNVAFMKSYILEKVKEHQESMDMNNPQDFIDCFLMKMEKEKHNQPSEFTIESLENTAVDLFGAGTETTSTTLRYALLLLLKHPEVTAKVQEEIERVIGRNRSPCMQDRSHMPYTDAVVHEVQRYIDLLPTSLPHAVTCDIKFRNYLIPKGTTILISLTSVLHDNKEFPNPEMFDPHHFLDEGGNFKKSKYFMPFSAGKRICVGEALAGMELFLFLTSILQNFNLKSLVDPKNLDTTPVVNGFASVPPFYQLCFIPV

Cytochrome P450 3A4 = Cytochrome P450 3A4 (Homo sapiens, UniProt P08684);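 also: CYP3A4 tested as one member of a cytochrome P450 panel screen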
Chain of Cytochrome P450 3A4 (P08684 whole entry): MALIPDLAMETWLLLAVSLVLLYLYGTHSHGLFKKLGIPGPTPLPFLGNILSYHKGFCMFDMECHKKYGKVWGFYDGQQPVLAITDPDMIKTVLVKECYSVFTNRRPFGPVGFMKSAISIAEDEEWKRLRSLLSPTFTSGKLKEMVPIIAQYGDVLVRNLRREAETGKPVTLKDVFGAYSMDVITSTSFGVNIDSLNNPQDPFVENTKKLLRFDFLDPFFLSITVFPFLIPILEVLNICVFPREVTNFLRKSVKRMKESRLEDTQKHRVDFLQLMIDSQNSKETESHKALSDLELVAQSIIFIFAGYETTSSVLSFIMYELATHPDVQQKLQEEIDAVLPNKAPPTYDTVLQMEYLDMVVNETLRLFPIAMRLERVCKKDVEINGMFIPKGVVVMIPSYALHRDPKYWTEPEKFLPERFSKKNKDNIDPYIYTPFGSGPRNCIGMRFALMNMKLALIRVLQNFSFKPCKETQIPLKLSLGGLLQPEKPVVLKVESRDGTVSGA

[3] = target: Lysine-specific demethylase 4A (Homo sapiens, UniProt O75164); experiment: inhibition of JMJD2A H3K9me3 demethylation – biochemical, DELFIA europium, cherry-picked samples, selectivity assay for GASC-1 inhibitor project, dose response (AID 488840)
Chain of Lysine-specific demethylase 4A (O75164 whole entry): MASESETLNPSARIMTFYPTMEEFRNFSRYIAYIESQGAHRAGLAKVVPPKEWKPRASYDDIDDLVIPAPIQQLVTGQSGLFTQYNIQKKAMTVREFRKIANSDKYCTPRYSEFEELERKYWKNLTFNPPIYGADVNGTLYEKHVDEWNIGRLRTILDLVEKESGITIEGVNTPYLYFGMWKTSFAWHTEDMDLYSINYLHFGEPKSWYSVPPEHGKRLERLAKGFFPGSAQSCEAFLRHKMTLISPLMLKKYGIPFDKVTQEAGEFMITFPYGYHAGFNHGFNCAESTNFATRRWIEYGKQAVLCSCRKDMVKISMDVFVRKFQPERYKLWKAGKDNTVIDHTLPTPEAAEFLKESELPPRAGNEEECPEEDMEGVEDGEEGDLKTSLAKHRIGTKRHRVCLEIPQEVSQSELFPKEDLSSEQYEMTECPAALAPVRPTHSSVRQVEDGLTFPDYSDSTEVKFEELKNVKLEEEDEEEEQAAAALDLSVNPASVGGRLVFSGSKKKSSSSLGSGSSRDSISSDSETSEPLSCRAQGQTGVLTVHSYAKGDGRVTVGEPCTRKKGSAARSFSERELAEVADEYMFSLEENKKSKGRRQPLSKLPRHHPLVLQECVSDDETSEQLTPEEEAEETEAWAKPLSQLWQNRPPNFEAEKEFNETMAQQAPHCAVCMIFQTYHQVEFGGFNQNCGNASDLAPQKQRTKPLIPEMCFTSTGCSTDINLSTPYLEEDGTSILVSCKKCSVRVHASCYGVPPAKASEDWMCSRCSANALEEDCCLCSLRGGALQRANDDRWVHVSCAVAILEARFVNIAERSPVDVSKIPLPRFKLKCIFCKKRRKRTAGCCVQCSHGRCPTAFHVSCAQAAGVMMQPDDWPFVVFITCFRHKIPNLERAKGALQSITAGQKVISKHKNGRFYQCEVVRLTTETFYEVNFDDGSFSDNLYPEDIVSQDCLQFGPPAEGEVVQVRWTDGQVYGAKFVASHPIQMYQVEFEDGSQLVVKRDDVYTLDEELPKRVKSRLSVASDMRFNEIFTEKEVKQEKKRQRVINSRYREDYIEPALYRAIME

[4] = target: T2, Lysine-specific demethylase 4C (Homo sapiens, UniProt Q9H3R0); experiment: inhibition of JMJD2C H3K9me3 demethylation – biochemical, DELFIA europium, cherry-picked samples, dose response (AID 488835); format: functional
T2 sequence (Q9H3R0 whole entry): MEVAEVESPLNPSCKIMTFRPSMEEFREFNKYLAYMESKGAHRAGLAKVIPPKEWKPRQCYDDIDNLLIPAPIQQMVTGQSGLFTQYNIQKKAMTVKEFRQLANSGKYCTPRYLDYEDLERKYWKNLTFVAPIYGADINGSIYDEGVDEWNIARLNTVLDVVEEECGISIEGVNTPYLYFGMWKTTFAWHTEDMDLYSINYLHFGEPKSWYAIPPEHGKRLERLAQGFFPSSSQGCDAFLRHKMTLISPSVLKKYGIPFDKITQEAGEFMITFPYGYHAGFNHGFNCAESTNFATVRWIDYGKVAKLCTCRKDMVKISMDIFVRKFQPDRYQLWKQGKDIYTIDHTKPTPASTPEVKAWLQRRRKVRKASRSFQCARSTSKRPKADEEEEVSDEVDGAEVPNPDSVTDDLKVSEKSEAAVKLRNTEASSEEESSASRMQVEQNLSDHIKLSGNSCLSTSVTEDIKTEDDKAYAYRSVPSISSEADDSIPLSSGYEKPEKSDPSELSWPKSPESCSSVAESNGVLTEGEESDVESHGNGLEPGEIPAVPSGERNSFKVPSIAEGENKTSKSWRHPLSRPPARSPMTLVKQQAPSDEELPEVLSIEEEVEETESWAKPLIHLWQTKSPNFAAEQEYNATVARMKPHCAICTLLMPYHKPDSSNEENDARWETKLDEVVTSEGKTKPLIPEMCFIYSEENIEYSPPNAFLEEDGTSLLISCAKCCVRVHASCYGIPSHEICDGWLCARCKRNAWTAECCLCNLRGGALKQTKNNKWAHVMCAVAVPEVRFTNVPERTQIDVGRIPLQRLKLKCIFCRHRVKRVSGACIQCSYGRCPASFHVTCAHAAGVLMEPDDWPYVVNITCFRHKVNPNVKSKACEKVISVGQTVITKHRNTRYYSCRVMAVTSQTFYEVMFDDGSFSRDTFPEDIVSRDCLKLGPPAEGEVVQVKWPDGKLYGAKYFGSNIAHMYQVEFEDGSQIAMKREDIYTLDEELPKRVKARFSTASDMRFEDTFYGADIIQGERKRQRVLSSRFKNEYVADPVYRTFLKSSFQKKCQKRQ

[5] = target: T3, Tyrosine-protein phosphatase non-receptor type 7 (Homo sapiens, UniProt P35236); format: functional
T3 sequence (P35236 whole entry): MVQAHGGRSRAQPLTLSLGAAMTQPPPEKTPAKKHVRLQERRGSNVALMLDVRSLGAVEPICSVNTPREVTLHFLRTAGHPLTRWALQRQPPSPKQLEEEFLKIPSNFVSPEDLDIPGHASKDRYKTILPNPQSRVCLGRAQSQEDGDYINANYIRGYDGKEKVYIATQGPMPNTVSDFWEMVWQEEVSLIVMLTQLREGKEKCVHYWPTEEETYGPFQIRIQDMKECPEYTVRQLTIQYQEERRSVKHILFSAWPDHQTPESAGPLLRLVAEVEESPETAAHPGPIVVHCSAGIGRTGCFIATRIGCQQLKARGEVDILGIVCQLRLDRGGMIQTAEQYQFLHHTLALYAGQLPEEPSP

[6] = target: T4, Tyrosine-protein phosphatase non-receptor type 22 (Homo sapiens, UniProt Q9Y2R2); format: functional
T4 sequence (Q9Y2R2 whole entry): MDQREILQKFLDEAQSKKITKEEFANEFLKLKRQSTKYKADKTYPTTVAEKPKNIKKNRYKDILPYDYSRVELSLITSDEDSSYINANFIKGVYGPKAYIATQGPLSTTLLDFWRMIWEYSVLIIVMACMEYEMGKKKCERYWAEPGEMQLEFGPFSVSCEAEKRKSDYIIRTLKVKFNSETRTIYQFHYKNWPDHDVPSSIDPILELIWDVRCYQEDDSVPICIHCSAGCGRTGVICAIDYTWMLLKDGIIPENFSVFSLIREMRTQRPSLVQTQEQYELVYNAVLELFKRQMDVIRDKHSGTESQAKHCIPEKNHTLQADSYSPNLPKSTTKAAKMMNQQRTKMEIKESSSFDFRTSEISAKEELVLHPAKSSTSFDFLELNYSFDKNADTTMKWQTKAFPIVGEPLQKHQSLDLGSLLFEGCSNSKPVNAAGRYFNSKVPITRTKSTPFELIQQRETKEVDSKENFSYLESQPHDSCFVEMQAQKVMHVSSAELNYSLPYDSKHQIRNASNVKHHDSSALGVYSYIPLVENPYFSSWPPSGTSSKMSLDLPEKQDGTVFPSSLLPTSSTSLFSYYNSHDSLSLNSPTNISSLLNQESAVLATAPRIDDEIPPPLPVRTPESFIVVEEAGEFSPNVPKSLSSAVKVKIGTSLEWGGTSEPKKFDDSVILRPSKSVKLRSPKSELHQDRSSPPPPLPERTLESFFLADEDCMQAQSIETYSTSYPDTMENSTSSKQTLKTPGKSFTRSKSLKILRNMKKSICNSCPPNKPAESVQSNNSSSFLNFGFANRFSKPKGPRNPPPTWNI

[7] = target: T4, Tyrosine-protein phosphatase non-receptor type 22; format: functional; remark: listed apart in the source
[8] = target: T5, Calpain-2 catalytic subunit (Sus scrofa, UniProt P43367); experiment: m-calpain protease blockers, concentration series – biochemical, fluorogenic peptide substrate, dose response (AID 1420); format: functional
T5 sequence (P43367 whole entry): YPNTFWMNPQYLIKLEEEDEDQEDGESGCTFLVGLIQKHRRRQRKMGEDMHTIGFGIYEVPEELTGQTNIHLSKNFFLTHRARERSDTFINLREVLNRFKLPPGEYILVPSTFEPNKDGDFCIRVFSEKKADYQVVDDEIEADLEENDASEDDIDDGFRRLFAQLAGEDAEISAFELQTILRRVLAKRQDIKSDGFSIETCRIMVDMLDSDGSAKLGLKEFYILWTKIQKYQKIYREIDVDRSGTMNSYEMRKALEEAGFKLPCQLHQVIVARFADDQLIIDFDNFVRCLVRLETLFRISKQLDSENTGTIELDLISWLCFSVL

[9] = target: Intestinal-type alkaline phosphatase (Homo sapiens, UniProt P09923); experiment: human intestinal alkaline phosphatase activators, dose response, biochemical, luminescence, uHTS hits (AID 463120); format: functional
Chain of Intestinal-type alkaline phosphatase (P09923 whole entry, the tested form may be a part): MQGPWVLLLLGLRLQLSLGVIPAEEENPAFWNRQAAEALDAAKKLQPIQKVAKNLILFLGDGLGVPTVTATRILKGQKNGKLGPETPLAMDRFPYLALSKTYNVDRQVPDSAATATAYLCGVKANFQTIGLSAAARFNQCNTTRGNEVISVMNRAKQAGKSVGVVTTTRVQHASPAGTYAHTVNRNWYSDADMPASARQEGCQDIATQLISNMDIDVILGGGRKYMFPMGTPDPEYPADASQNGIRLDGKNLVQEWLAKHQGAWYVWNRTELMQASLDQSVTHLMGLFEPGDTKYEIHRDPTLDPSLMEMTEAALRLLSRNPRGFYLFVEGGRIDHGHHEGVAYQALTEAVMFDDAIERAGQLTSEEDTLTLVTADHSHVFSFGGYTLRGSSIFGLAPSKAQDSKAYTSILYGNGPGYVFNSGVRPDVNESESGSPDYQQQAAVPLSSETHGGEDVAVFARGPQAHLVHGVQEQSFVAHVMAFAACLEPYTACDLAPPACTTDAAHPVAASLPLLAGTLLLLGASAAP

[10] = target: T6, Nucleotide-binding oligomerization domain-containing protein 1 (Homo sapiens, UniProt Q9Y239); experiment: SAR analysis of compounds that inhibit NOD1 - Set 3. [Related pubchem assays (depositor defined):AID1566, AID1575, AID1578, AID1849, AID1852, AID2333, AID2335, AID2466]; format: functional
T6 sequence (Q9Y239 whole entry): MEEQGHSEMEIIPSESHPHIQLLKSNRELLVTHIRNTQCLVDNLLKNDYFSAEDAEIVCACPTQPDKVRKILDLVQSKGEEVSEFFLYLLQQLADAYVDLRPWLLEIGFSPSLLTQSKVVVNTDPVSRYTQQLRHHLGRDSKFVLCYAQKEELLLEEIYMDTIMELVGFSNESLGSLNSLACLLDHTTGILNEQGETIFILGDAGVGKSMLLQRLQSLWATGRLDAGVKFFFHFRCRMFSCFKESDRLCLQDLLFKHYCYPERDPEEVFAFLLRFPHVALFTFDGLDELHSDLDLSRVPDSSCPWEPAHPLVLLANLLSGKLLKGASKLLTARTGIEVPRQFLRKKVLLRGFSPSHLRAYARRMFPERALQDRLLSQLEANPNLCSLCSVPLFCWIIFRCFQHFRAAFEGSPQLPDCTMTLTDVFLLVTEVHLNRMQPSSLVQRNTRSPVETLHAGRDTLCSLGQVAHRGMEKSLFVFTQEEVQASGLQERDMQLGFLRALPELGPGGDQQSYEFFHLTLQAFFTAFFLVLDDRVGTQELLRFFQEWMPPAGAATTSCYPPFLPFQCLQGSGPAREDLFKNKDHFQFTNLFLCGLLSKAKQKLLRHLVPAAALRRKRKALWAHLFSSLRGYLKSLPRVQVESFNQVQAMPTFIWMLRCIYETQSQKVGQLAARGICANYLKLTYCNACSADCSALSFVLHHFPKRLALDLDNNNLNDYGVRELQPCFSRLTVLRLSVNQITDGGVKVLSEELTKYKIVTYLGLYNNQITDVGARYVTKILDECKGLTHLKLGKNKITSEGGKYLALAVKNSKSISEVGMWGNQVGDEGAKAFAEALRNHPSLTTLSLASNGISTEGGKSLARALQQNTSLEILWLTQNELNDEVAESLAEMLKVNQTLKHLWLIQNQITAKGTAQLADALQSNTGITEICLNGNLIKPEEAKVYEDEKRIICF

Tumor necrosis factor = Tumor necrosis factor (Homo sapiens, UniProt P01375); experiment: analog potency on TNFa NF-kB signaling – cell-based, set 3, SAR follow-up (AID 2801); format: functional
Chain of Tumor necrosis factor (P01375 whole entry): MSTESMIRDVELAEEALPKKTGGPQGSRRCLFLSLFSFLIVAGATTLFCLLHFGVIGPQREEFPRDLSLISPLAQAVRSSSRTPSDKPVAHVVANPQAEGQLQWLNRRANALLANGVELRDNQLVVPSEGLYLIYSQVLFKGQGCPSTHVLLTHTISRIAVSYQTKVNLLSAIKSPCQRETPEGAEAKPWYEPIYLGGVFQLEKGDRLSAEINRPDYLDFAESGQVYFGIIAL

HEK293 = experiment: SAR analysis of compounds that are cytotoxic to HEK293 - Set 3. [Related pubchem assays (depositor defined):AID1575, AID1578, AID1848, AID1849, AID2001, AID2333, AID2334, AID2335, AID2337, AID2469]; format: functional, cell-based; conditions: Homo sapiens
[11] = target: Nucleotide-binding oligomerization domain-containing protein 2 (Homo sapiens, UniProt Q9HC29); experiment: inhibition of MDP-driven NOD2 NF-kB reporter – cell-based, set 3, SAR follow-up (AID 2799); format: functional
Chain of Nucleotide-binding oligomerization domain-containing protein 2 (Q9HC29 whole entry, the tested form may be a part): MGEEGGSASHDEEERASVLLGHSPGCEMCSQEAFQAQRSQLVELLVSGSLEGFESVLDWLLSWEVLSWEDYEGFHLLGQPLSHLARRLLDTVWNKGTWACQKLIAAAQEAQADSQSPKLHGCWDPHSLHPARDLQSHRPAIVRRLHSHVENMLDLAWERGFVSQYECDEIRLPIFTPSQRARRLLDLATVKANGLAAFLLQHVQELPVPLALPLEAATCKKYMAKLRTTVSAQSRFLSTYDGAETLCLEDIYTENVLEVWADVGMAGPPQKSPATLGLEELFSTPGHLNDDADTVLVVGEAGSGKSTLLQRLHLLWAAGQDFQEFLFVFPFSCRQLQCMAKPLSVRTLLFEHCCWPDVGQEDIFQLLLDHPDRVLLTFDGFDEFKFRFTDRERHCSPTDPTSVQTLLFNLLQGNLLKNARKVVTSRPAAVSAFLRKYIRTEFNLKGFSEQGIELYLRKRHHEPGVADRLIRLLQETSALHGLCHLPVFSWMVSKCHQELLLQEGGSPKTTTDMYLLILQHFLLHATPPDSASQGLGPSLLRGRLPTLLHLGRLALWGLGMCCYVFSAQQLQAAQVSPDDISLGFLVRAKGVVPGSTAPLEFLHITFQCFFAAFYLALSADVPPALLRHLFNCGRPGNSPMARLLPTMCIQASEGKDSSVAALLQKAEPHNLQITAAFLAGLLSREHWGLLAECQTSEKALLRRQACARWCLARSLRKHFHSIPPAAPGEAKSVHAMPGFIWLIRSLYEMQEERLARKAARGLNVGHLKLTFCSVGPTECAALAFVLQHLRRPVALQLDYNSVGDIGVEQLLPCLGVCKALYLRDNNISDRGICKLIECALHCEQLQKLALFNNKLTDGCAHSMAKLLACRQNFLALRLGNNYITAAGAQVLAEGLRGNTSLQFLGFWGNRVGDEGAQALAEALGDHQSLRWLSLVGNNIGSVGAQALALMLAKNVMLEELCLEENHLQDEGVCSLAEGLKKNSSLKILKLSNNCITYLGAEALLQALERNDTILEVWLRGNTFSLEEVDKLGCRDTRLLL

SMILES: Cc1ccccc1NC(=O)c1cccc2nc3ccccc3nc12
- EC50 [1]: 23.8 µM (active)
- EC50 [2]: 21.9 µM (active)
- IC50 (Coagulation factor XII): > 50 µM (inactive)
- AC50 (Cytochrome P450 2C9): 8.91 µM (inconclusive)
- AC50 (Cytochrome P450 3A4): inconclusive

SMILES: CC(C)Oc1ccc(Cc2c(O)nc(O)nc2O)cc1
- AC50 [3]: 17.5 µM (active)
- AC50 [4]: 2.86 µM (active)

SMILES: Cc1nn(Cc2cccc(C(=O)NC34CC5CC(CC(C5)C3)C4)c2)c(C)c1Br
- IC50 [5]: > 79.4 µM (inactive)
- IC50 [6]: > 79.4 µM (inactive)
- IC50 [7]: > 79.4 µM (inactive)

SMILES: Cc1cc2cc3c(cc2nc1SCC(=O)Nc1nc(C)c(C)s1)OCO3
- IC50 [8]: 24.1 µM (not active)
- EC50 [9]: 25 µM (active)

SMILES: Nc1nc2ccccc2n1S(=O)(=O)c1cccc2ccccc12
- IC50 [10]: > 20 µM (inactive)
- IC50 (Tumor necrosis factor): > 20 µM (inactive)
- IC50 (HEK293): > 20 µM (inactive)
- IC50 [11]: > 20 µM (inactive)

Source: ChEMBL document CHEMBL1201862, “PubChem BioAssay data set” (2004)
